Here are results for one molecule from patent publication US20200345725A1, “Methods and Compositions for Treating Cancer” (Omeros Corporation, priority 2019, published 2020).

One may read the IC50 as the concentration that gives 50% inhibition.

Assay type in all cases: cell-based
Assay [1] relates to human PBMCs. In words: Intracellular cytokine staining in cell populations of human PBMC. As to conditions: 2 days after stimulation. As for the experimental part:
In a first experiment, human PBMCs from two different donors were incubated overnight in the presence or absence of compound 10 (10 μM). […] The cells were fixed four hours later and stained with antibodies for cell type markers (FITC-anti-CD3 and PerCP-C95.5-anti-CD4) and IL-2 (PE-anti-IL-2). The cells were analyzed by flow cytometry. The fraction of cells with intracellular IL-2 (PE-labeled) was then determined in the CD4^+ and CD8^+ T cell populations, as well as in non-T cells.
In a second experiment, human PBMCs from two different donors were stimulated with anti-CD3 and anti-CD28 antibodies and incubated in the absence or presence of increasing concentrations of compound 10 (0, 0.1, 0.3, 1.0, or 3.0 μM). The vesicular transport was blocked two days later with GolgiStop™. The cells were fixed four hours later and stained with antibodies for cell type markers (FITC-anti-CD3, PerCP-Cy5.5-anti-CD4, PE-anti-CD56 and Pacific Blue-anti-CD16) and either of the cytokines IL-2, IL-10 and IFN-γ (anti-cytokine antibodies were all APC-labeled). The cells were analyzed by flow cytometry. The fraction of cells with intracellular IL-2, IFN-γ, IL-10 and […] was then determined in different cellular populations.

In a further assay the test system is human T cells. In words: PD-L1, TIGIT and AREG expression on human T cells in PBMC. As to conditions: 1.25 or 5 μM; one day post-stimulation. As for the experimental part: PBMC cells from a single donor mixed with additional irradiated antigen-presenting cells (APC) and anti-CD3 antibodies (UCHT1) were incubated in the presence of various concentrations of GPR174 inhibitory compound 10 (1.25 to 5 μM) or equivalent concentrations of vehicle (DMSO). The cells were analyzed by flow cytometry for expression of CD4, CD8, PD-L1, TIGIT and AREG.

The subject of assay [2] is human PBMCs. In words: Treg (FoxP3/Helios) flow cytometry in stimulated human PBMC. On the procedure:
(§1) A fraction of the cells was taken for staining on day 3 post-stimulation, while the rest of the cells were split 1:4 with fresh medium and used for staining on day 7 post-stimulation. To determine the fraction of natural Treg (nTreg) cells (FoxP3^+Helios^+), PBMCs were washed, stained with fluorescently labeled anti-CD4 antibodies, fixed, permeabilized and stained with a mixture of fluorescent anti-FoxP3 and anti-Helios antibodies. Labeled cells were analyzed by flow cytometry for populations stained for these three markers. Each experiment was performed in triplicate and was repeated five times.
as §1, with “(FoxP3^+Helios^−),” for “(FoxP3^+Helios^+),”, “three” for “five”
as §1, with “day 2” for “day 3”, “(FoxP3^+Helios^+), PBMC” for “(FoxP3^+Helios^+), PBMCs”
(Flow cytometry measures light scatter and fluorescence of single cells or particles in a stream.)

A further assay relates to mouse splenocytes. In words: IL-2 in stimulated splenocyte cultures from WT or GPR174 KO mice. The following applies: 48 hours; 10 μM; vs vehicle. On the procedure:
GPR174 knockout (KO) mice (referred to also as “FKSG79”) were generated as described in Gragerov A. et al., PNAS vol 104(36): 14406-14411, 2007. Splenocyte cultures were generated from four GPR174 KO mice and four wild-type (WT) mice. Single-cell suspension of individual mouse spleens were pelleted by centrifugation, resuspended in RBC lysis buffer to remove erythrocytes, spun down again and resuspended in T cell medium (RPMI-1640, 10% FBS, 6 mM L-Glutamine, 12.5 mM HEPES, 50 μM 2-mercaptoethanol, Pen/Strep). Thus, prepared splenocytes were plated into 96-well plates at a density of 3×10^6 cells/mL, 250 μL/well and stimulated with 100 ng/mL of anti-CD3 antibodies and 100 ng/mL of anti-CD28. Cells were treated with either vehicle (0.1% DMSO) or GPR174 inhibitory Compound 10 (10 μM). 48 hours later, cell supernatants were analyzed for cytokine levels using LEGENDplex mouse Th1 cytokine detection kit (BioLegend). Four GPR174 KO and four WT spleens were analyzed, each in triplicate.

The next assay deals with T1, WT GPR174 (Homo sapiens, UniProt Q9BXC1).
T1 construct: expressed in transfected cells; host or cells: HEK293
T1 sequence (Q9BXC1 whole entry): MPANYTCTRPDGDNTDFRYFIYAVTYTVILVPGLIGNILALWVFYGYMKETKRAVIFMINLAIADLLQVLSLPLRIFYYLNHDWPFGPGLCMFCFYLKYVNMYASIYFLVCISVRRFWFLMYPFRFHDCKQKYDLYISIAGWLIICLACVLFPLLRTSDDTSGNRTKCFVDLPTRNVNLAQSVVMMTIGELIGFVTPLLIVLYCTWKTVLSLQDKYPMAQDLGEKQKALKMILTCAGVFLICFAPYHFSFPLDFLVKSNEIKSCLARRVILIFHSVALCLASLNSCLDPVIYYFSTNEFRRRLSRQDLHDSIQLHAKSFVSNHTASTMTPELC
In words: Inhibition of PS-induced GPR174 Gs signaling (GloSensor), HEK293 stably transfected with WT GPR174. As for the experimental part:
The signaling experiment was conducted as described for FIG. 45, but instead of transient transfection a pool of HEK293 cells stably transfected with either WT GPR174 (for compound 10, as shown in FIG. 47A) or GPR174-v38 for the rest of the tested compounds, as shown in FIGS. 47B-47F)) and GloSensor cAMP biosensor was used. A dilution series of each of the GPR174 inhibitory compounds 10 (Group I), 6 (Group I), 11 (Group I), 20 (Group II), 23 (Group IV), and 30 (Group IV) were prepared in DMSO. After the plates were pre-read in a luminometer, 1 μL of the compound dilution was added per well (with control wells receiving 1 μL of DMSO) followed by addition of PS liposomes to the final concentration of 1 μM. Plates were read in a luminometer after 15 minutes of incubation. The ratio of luminescence after PS addition to the pre-read luminescence value was used as a measure of receptor-mediated signaling.

The test system of assay [3] is GPR174. The assay is described as follows: IL-2 production from purified GPR174 WT and GPR174-KO mouse T cells with PS liposomes (FIG. 67).
The target in assay [4] is T2, GPR174 (Mus musculus, UniProt Q3U507).
T2 construct: endogenous in cells; host or cells: purified mouse T cells from WT (and GPR174-KO) mice
T2 sequence (Q3U507 whole entry): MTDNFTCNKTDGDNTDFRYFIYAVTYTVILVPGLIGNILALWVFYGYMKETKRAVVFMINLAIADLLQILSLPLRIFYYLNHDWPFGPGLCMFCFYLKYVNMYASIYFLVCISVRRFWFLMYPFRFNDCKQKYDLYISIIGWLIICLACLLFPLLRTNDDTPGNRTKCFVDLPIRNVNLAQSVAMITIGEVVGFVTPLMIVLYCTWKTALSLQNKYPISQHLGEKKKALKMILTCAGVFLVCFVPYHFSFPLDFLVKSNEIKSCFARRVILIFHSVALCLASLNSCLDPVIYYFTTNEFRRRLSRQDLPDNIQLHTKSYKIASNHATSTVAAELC
Described as above. The following applies: GPR174 WT mouse T cells, in presence of PS liposomes, FIG. 67.

Structures are written as SMILES.

Regarding `CC1CCN(c2cc(N3CCN(S(=O)(=O)c4ccccc4)CC3)c([N+](=O)[O-])cc2F)CC1` [compound 10], in the assay on human PBMCs [1] (0.1-3.0 μM), the “intracellular IFN-γ production by cell type” value was “enhanced in CD4 and CD8 positive T cells, as well as in NK cells”; the “intracellular IL-2 production by cell type” value is “induced specifically in T cells, both CD4 and CD8 positive”; the “intracellular IL-10 production by cell type” value is “induced specifically in T cells, both CD4 and CD8 positive”. Besides, in the assay with human PBMCs [1] (0.1-10 μM), the “intracellular TNF-α production by cell type” value is “enhanced in CD4 and CD8 positive T cells, as well as in NK cells”. Besides, in the assay on human T cells, the “AREG expression in CD4+ T cells” value is on record as “reduced”, the “PD-L1 expression in CD4+ T cells” value was “reduced” and the “TIGIT expression in CD8+ T cells” value is reported as “reduced”. Further, in the assay with human PBMCs [2] (Example 6, day 7 post-stimulation, 100 μM, vs vehicle), the “percentage of FoxP3+Helios+ (nTreg) cells in the CD4+ cell population” value was “significantly reduced”. In addition, in the assay on human PBMCs [2] (Example 8, day 7, single donor, 3, 10, 30 μM), the “percentage of FoxP3+Helios+ (nTreg) cells in the CD4+ cell population” value is reported as “significantly reduced”. Further, the “FoxP3+Helios+ (nTreg) cells in the CD4+ cell population, fraction of vehicle” value in the assay with human PBMCs [2] (Example 9, day 7, eight donors, 30 μM) is listed as “significantly reduced”. Also, in the assay on human PBMCs [2] (day 3 post-stimulation, 100 μM, vs vehicle), the “percentage of FoxP3+Helios− cells in the CD4+ cell population” value is “significantly increased”. Further, in the assay on mouse splenocytes, the “IL-2 in culture supernatants, GPR174 KO splenocytes” value is “no significant difference” and the “IL-2 in culture supernatants, WT splenocytes” value is recorded as “increased”. The “PS-mediated GPR174 Gs signaling (FIG. 47A)” value on WT GPR174 (PS liposomes 1 μM) is reported as “inhibited”. Also, the IC50 at WT GPR174 (PS liposomes 1 μM, WT GPR174, read-out: apparent IC50, inhibition of PS-induced GPR174 Gs signaling) was in the range of 20 to 40 nM. The “inhibition of the PS signaling through the GPR174 receptor” value at WT GPR174 (at concentrations of 1-2 μM) is “almost complete inhibition”. Moreover, the “effect on IL-2 in presence of PS liposomes, fold change” value in the assay with GPR174 [3] (GPR174-KO mouse T cells, FIG. 67) is reported as 0.9 fold. The “effect on T cell response in the absence of PS or GPR174” value with GPR174 [3] (purified human and mouse T cells) is “negligible effect”. In addition, the “reversal of PS liposome-mediated suppression of IL-2, fold change” value at GPR174 [4] came out at 3.5 fold.
